Reference: patent US20260209152A1, “Substituted Hydroxystilbene Compounds and Derivatives, Synthesis and Uses Thereof” (Kynan Duke IP, LLC, priority 2019, published 2026)
Like-named read-outs stand apart in the source and are kept apart here.

Tests used:
Assay in all cases: CellTiter Glo cell viability assay
Type in all cases: cell-based, human
Lung NCI-H1573 = conditions: Homo sapiens
In short: (§1)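 Cells seeded at 1.7*10^3/well in quadruplicate; compounds at 18 two-fold dilutions from 5 μM (0.000038146-5 μM), or at 1, 2, 5, 10 and 20 μM. CellTiter Glo luminescence read on days 1, 3 and 5 after treatment. IC50 by nonlinear regression of luminescence versus log dose.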

Bladder T24 = conditions: Homo sapiens
In short: as §1

Liver SNU-423 = conditions: Homo sapiens
In short: as §1

Pharynx DETROIT = conditions: Homo sapiens
In short: as §1

Pharynx FADU = conditions: Homo sapiens
In short: as §1

Ewing's Sarcoma HTB-166 = conditions: Homo sapiens
In short: as §1

Kidney Caki-2 = conditions: Homo sapiens
In short: as §1

[1] = system: Hypo-pharynx UPCI: SCC152; conditions: Homo sapiens
In short: as §1

Kidney Caki-1 = conditions: Homo sapiens
In short: as §1

Liver SNU-398 = conditions: Homo sapiens
In short: as §1

Pancreatic BxPC3 = conditions: Homo sapiens
In short: as §1

Bladder UMUC_3 = conditions: Homo sapiens
In short: as §1

Liver HepG2 = conditions: Homo sapiens
In short: as §1

Tongue UPCI: SCC090 = conditions: Homo sapiens
In short: as §1

Lung NCI-H1437 = conditions: Homo sapiens
In short: as §1

Lung NCI-H2126 = conditions: Homo sapiens
In short: as §1

Bladder HT-1197 = conditions: Homo sapiens
In short: as §1

Bladder SCABER = conditions: Homo sapiens
In short: as §1

Pancreatic HPAFII = conditions: Homo sapiens
In short: as §1

Tongue SCC-4 = conditions: Homo sapiens
In short: as §1

Rhabomyosarcoma TE 159.T = conditions: Homo sapiens, 72 h; 3 Days of treatment; 18 2-fold dilutions 5-0.00003 μM; read-out: Average IC50
In short: as §1

[2] = 72 h, 3 Days of treatment, 18 2-fold dilutions 5-0.00003 μM, read-out: Average IC50

`COc1cc(/C=C/c2cc(O)cc(OC)c2CC=C(C)C)ccc1O` [Compound 1, (E)-3-(4-hydroxy-3-methoxystyryl)-5-methoxy-4-(3-methylbut-2-en-1-yl)phenol] was tested. Which IC50 (Lung NCI-H1573; NCI-H1573, 72 h, 3 Days of treatment, 18 2-fold dilutions 5-0.00003 μM, read-out: Average IC50) did it give?
Its IC50 is 0.217 µM.

What about the IC50 (Lung NCI-H1573; NCI-H1573/CRL-5877, 11 dilutions 3-0.00001 μM, read-out: IC50) of the same compound?
The IC50 was 0.273 µM.

And the IC50 (Bladder T24; [2])?
The IC50 was 0.129 µM.

What about the IC50 (Bladder T24; T24/HTB-4, 11 dilutions 3-0.00001 μM, read-out: IC50) of the same compound?
Its IC50 is 0.182 µM.

And the IC50 (Liver SNU-423; SNU-423, 72 h, 3 Days of treatment, 18 2-fold dilutions 5-0.00003 μM, read-out: Average IC50)?
The IC50 was 0.0338 µM.

And the IC50 (Liver SNU-423; SNU-423/CRL-2238, 11 dilutions 3-0.00001 μM, read-out: IC50)?
The IC50 was 0.203 µM.

And the IC50 (Pharynx DETROIT; [2])?
The IC50 was 1.17 µM.

And the IC50 (Pharynx DETROIT; Detroit 562/CCL-138, 11 dilutions 3-0.00001 μM, read-out: IC50)?
The IC50 was 0.131 µM.

And the IC50 (Pharynx FADU; FaDu, 72 h, 3 Days of treatment, 18 2-fold dilutions 5-0.00003 μM, read-out: Average IC50)?
The IC50 was 0.0744 µM.

And the IC50 (Pharynx FADU; Fadu/HTB-43, 11 dilutions 3-0.00001 μM, read-out: IC50)?
Its IC50 is 0.139 µM.

What about the IC50 (Ewing's Sarcoma HTB-166; [2]) of the same compound?
Its IC50 is 0.257 µM.

What about the IC50 (Ewing's Sarcoma HTB-166; RD-ES/HTB-166, 11 dilutions 3-0.00001 μM, read-out: IC50) of the same compound?
The IC50 was 0.31 µM.

What about the IC50 (Kidney Caki-2; CAKI-2, 72 h, 3 Days of treatment, 18 2-fold dilutions 5-0.00003 μM, read-out: Average IC50) of the same compound?
Its IC50 is 1.12 µM.

And the IC50 (Kidney Caki-2; Caki-2/HTB-47, 11 dilutions 3-0.00001 μM, read-out: IC50)?
The IC50 was 0.426 µM.

And the IC50 [1, 2]?
The IC50 was 0.0463 µM.

And the IC50 ([1]; UPCI: SCC152/CRL-3240, 11 dilutions 3-0.00001 μM, read-out: IC50)?
The IC50 was 0.14 µM.

And the IC50 (Kidney Caki-1; CAKI-1, 72 h, 3 Days of treatment, 18 2-fold dilutions 5-0.00003 μM, read-out: Average IC50)?
Its IC50 is 0.103 µM.

What about the IC50 (Kidney Caki-1; Caki-1/HTB-46, 11 dilutions 3-0.00001 μM, read-out: IC50) of the same compound?
Its IC50 is 0.12 µM.

What about the IC50 (Liver SNU-398; SNU-398, 72 h, 3 Days of treatment, 18 2-fold dilutions 5-0.00003 μM, read-out: Average IC50) of the same compound?
Its IC50 is 0.0429 µM.

And the IC50 (Liver SNU-398; SNU-398/CRL-2233, 11 dilutions 3-0.00001 μM, read-out: IC50)?
The IC50 was 0.208 µM.

And the IC50 (Pancreatic BxPC3; BXPC-3, 72 h, 3 Days of treatment, 18 2-fold dilutions 5-0.00003 μM, read-out: Average IC50)?
The IC50 was 1.06 µM.

What about the IC50 (Pancreatic BxPC3; BxPC-3/CRL-1687, 11 dilutions 3-0.00001 μM, read-out: IC50) of the same compound?
Its IC50 is 0.944 µM.

And the IC50 (Bladder UMUC_3; UMUC3, 72 h, 3 Days of treatment, 18 2-fold dilutions 5-0.00003 μM, read-out: Average IC50)?
The IC50 was 0.0313 µM.

And the IC50 (Bladder UMUC_3; UMUC3, UM-UC-3/CRL-1749, 11 dilutions 3-0.00001 μM, read-out: IC50)?
Its IC50 is 0.333 µM.

What about the IC50 (Liver HepG2; HepG2, 72 h, 3 Days of treatment, 18 2-fold dilutions 5-0.00003 μM, read-out: Average IC50) of the same compound?
Its IC50 is 0.212 µM.

And the IC50 (Liver HepG2; HepG2, Hep G2/HB-8065, 11 dilutions 3-0.00001 μM, read-out: IC50)?
The IC50 was 0.577 µM.

And the IC50 (Tongue UPCI: SCC090; [2])?
The IC50 was 0.0901 µM.

And the IC50 (Tongue UPCI: SCC090; UPCI: SCC090/CRL-3239, 11 dilutions 3-0.00001 μM, read-out: IC50)?
Its IC50 is 0.0009 µM.

And the IC50 (Lung NCI-H1437; NCI-H1437, 72 h, 3 Days of treatment, 18 2-fold dilutions 5-0.00003 μM, read-out: Average IC50)?
Its IC50 is 0.347 µM.

And the IC50 (Lung NCI-H1437; NCI-H1437/CRL-5872, 11 dilutions 3-0.00001 μM, read-out: IC50)?
The IC50 was 0.143 µM.

And the IC50 (Lung NCI-H2126; NCI-H2126, 72 h, 3 Days of treatment, 18 2-fold dilutions 5-0.00003 μM, read-out: Average IC50)?
The IC50 was 0.0754 µM.

And the IC50 (Lung NCI-H2126; NCI-H2126/CCL-256, 11 dilutions 3-0.00001 μM, read-out: IC50)?
Its IC50 is 0.105 µM.

What about the IC50 (Bladder HT-1197; HT1197, 72 h, 3 Days of treatment, 18 2-fold dilutions 5-0.00003 μM, read-out: Average IC50) of the same compound?
Its IC50 is 0.258 µM.

And the IC50 (Bladder HT-1197; HT1197, HT-1197/CRL-1473, 11 dilutions 3-0.00001 μM, read-out: IC50)?
Its IC50 is 0.108 µM.

What about the IC50 (Bladder SCABER; SCaBER, 72 h, 3 Days of treatment, 18 2-fold dilutions 5-0.00003 μM, read-out: Average IC50) of the same compound?
Its IC50 is 0.0337 µM.

What about the IC50 (Bladder SCABER; SCaBER/HTB-3, 11 dilutions 3-0.00001 μM, read-out: IC50) of the same compound?
The IC50 was 0.065 µM.

What about the IC50 (Pancreatic HPAFII; HPAF-II, 72 h, 3 Days of treatment, 18 2-fold dilutions 5-0.00003 μM, read-out: Average IC50) of the same compound?
Its IC50 is 1.07 µM.

And the IC50 (Pancreatic HPAFII; HPAF-II/CRL-1997, 11 dilutions 3-0.00001 μM, read-out: IC50)?
The IC50 was 0.417 µM.

What about the IC50 (Tongue SCC-4; SCC-4, 72 h, 3 Days of treatment, 18 2-fold dilutions 5-0.00003 μM, read-out: Average IC50) of the same compound?
The IC50 was 0.1 µM.

What about the IC50 (Tongue SCC-4; SCC-4/CRL-1624, 11 dilutions 3-0.00001 μM, read-out: IC50) of the same compound?
The IC50 was 0.0395 µM.

And the IC50 (Rhabomyosarcoma TE 159.T)?
Its IC50 is 0.147 µM.
